From patent US10414811B2, “Protease-resistant lipidated GLP-1 analogs” (MEDIMMUNE LIMITED, priority 2015, dated 2019)
Read-outs that look alike come from different tables or passages of the source. Numbered stars: 1 amine (or outer) side, 2 acyl side, 3 side chain; on linkers, the order of the positions; unused ones are H or OH. Square brackets hold non-standard residues; d marks the D form. Side chains are listed from the residue outwards. Peptide text beside a SMILES is read from it. * marks the point of attachment. γGlu = O=C(O)[C@H](CCC(=O)[*:2])N[*:1]; αMeF = C[C@](N)(Cc1ccccc1)C(=O)O; αMeK = C[C@](N)(CCCCN)C(=O)O; Lauroyl = CCCCCCCCCCCC(=O)*; AEEA = NCCOCCOCC(=O)O; Aib = CC(C)(N)C(=O)O

Assays:
Assay type in all cases: cell-based
[1] = molecular target: T1, human GLP-1 receptor (GLP-1R) (Homo sapiens, UniProt P43220); experiment: cAMP assay, human GLP-1R cells
T1 construct: expressed in transfected cells
In short: (§1)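 Peptide-stimulated cAMP measured by two-step HTRF after a 30 min room-temperature incubation with receptor-expressing cells (hGLP-1R, hGIPR at 1×10^5 cells/ml; hGCGR at 2×10^5 cells/ml). Duplicate dilutions; EC50 from 4-parameter logistic fit of % Delta F.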

[2] = molecular target: T2, human glucagon receptor (GCGR) (Homo sapiens, UniProt P47871); experiment: cAMP assay, human GCGR cells
T2 construct: expressed in transfected cells
In short: as §1

[3] = molecular target: T3, human glucose-dependent insulinotropic peptide receptor (GIPR) (Homo sapiens, UniProt P48546); experiment: cAMP assay, human GIPR cells
T3 construct: expressed in transfected cells
T3 sequence (P48546 22-466): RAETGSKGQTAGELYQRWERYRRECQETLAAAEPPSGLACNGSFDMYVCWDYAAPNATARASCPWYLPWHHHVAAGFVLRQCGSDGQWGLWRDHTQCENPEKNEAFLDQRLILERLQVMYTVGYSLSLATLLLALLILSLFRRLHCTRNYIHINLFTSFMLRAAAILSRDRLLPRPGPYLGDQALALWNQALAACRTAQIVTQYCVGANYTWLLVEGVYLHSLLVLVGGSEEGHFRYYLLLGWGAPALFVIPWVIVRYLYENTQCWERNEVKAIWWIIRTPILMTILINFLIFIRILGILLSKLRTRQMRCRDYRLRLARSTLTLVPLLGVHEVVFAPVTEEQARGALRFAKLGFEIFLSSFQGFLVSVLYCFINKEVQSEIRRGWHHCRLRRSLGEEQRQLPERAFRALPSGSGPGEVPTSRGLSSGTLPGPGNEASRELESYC
In short: as §1

[4] = cAMP assay, first determination (n1), read-out: Primary assay EC50 GLP-1R n1
[5] = cAMP assay, second determination (n2), read-out: Primary assay EC50 GLP-1R n2
[6] = mean of n1 and n2, read-out: Mean pM GLP-1R
[7] = cAMP assay, first determination (n1), read-out: Primary assay EC50 Gluc-R (n1)
[8] = cAMP assay, second determination (n2), read-out: Primary assay EC50 Gluc-R (n2)
[9] = cAMP assay, first determination (n1), read-out: Primary assay EC50 GIP-R (n1)
[10] = cAMP assay, second determination (n2), read-out: Primary assay EC50 GIP-R (n2)

T1 sequence (P43220 24-463): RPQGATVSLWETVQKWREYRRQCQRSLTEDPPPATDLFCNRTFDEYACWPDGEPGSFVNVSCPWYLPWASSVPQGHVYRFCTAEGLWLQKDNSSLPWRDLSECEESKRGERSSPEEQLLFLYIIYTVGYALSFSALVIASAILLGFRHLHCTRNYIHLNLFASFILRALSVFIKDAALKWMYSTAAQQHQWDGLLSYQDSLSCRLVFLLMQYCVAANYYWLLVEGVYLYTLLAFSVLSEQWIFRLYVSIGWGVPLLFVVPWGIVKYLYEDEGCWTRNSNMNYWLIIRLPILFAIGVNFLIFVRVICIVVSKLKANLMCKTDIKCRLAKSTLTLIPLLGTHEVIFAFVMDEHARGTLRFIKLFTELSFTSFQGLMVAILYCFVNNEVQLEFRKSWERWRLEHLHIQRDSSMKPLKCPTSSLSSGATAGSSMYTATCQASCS
T2 sequence (P47871 26-477): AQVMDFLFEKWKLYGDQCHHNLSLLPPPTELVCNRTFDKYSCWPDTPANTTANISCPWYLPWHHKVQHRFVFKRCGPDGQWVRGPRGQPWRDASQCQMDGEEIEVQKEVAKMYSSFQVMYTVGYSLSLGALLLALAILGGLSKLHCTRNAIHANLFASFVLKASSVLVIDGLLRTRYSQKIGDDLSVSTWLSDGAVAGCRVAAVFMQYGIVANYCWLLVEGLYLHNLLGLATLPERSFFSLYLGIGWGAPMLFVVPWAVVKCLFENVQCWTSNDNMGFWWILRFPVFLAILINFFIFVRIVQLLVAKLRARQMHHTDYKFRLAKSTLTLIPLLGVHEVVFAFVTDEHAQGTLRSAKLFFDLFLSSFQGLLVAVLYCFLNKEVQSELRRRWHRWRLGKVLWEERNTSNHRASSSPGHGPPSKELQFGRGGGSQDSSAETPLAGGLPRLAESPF

| EC50 [1, 4] | EC50 [1, 5] | EC50 [1, 6] | EC50 [2, 7] | EC50 [2, 8] | EC50 [3, 9] | EC50 [3, 10] | EC50 ([1]; tris-lipidated peptides, mean of n1 and n2, read-out: Primary assay EC50 Mean pM GLP-1R) | EC50 ([1]; tris-lipidated peptides, replicate n1, read-out: Primary assay EC50 GLP-1R n1) | EC50 ([1]; tris-lipidated peptides, replicate n2, read-out: Primary assay EC50 GLP-1R n2) | EC50 ([2]; tris-lipidated peptides, second replicate, read-out: Primary assay EC50 Gluc-R (n2)) | EC50 ([3]; tris-lipidated peptides, second replicate, read-out: Primary assay EC50 GIP-R (n2)) | SMILES |
| --- | --- | --- | --- | --- | --- | --- | --- | --- | --- | --- | --- | --- |
| 34 pM | 25 pM | 29.4 pM | ≥ 27000 pM | ≥ 27000 pM | ≥ 27000 pM | ≥ 27000 pM | – | – | – | – | – | CCCCCCCCCCCC(=O)NCCCCCC(=O)NCCCCCC(=O)NCCCCCC(=O)NCCCC[C@H](NC(=O)[C@H](C)NC(=O)[C@H](C)NC(=O)[C@H](CCC(=O)O)NC(=O)CNC(=O)[C@H](CCC(=O)O)NC(=O)[C@H](CC(C)C)NC(=O)[C@](C)(Cc1ccccc1)NC(=O)[C@H](CO)NC(=O)[C@](C)(CO)NC(=O)[C@@H](NC(=O)[C@H](CC(=O)O)NC(=O)[C@H](CO)NC(=O)[C@@H](NC(=O)[C@](C)(Cc1ccccc1)NC(=O)[C@H](CO)NC(=O)CNC(=O)[C@H](CCC(=O)O)NC(=O)C(C)(C)NC(=O)[C@@H](N)Cc1c[nH]cn1)[C@@H](C)O)C(C)C)C(=O)N[C@@H](CCC(=O)O)C(=O)N[C@@](C)(Cc1ccccc1)C(=O)N[C@H](C(=O)N[C@@H](C)C(=O)N[C@@](C)(Cc1ccccc1)C(=O)N[C@H](C(=O)N[C@H](C(=O)N[C@@](C)(CCCCN)C(=O)NCC(=O)NCC(N)=O)C(C)C)C(C)C)[C@@H](C)CC [compound 133] |
| – | – | – | – | – | – | – | 434 pM | 399 pM | 470 pM | 19600 pM | 19600 pM | CCCCCCCCCCCC(=O)N[C@@H](CCC(=O)NCCOCCOCC(=O)NCCOCCOCC(=O)NCCCC[C@H](NC(=O)[C@H](CCC(=O)O)NC(=O)CNC(=O)[C@H](CCC(=O)O)NC(=O)[C@H](CC(C)C)NC(=O)[C@H](Cc1ccc(O)cc1)NC(=O)[C@H](CO)NC(=O)[C@H](CO)NC(=O)[C@H](CCCCNC(=O)COCCOCCNC(=O)COCCOCCNC(=O)CC[C@H](NC(=O)CCCCCCCCCCC)C(=O)O)NC(=O)[C@H](CC(=O)O)NC(=O)[C@H](CO)NC(=O)[C@@H](NC(=O)[C@](C)(Cc1ccccc1)NC(=O)[C@H](CO)NC(=O)CNC(=O)[C@H](CCC(=O)O)NC(=O)C(C)(C)NC(=O)[C@@H](N)Cc1c[nH]cn1)[C@@H](C)O)C(=O)N[C@@H](C)C(=O)N[C@@](C)(CCCCN)C(=O)N[C@@H](CCC(=O)O)C(=O)N[C@@H](Cc1ccccc1)C(=O)N[C@H](C(=O)N[C@@H](C)C(=O)N[C@@H](Cc1ccccc1)C(=O)N[C@@H](CCCCNC(=O)COCCOCCNC(=O)COCCOCCNC(=O)CC[C@H](NC(=O)CCCCCCCCCCC)C(=O)O)C(=O)N[C@H](C(=O)N[C@@H](CCC(=O)O)C(=O)NCC(=O)NCC(N)=O)C(C)C)[C@@H](C)CC)C(=O)O [compound 473] (H-H[Aib]EGS[αMeF]TSDK([AEEA-AEEA-γGlu-Lauroyl])SSYLEGEK([AEEA-AEEA-γGlu-Lauroyl])A[αMeK]EFIAFK([AEEA-AEEA-γGlu-Lauroyl])VEGG-NH2; N-terminus assumed) |
| 18 pM | 9.3 pM | 14 pM | ≥ 28000 pM | ≥ 28000 pM | ≥ 28000 pM | ≥ 28000 pM | – | – | – | – | – | CCCCCCCCCCCCCCCC(=O)N[C@@H](CCC(=O)NCCCC[C@H](NC(=O)[C@H](CCC(=O)O)NC(=O)[C@](C)(CCCCN)NC(=O)[C@H](C)NC(=O)[C@H](C)NC(=O)[C@H](CCC(=O)O)NC(=O)CNC(=O)[C@H](CCC(=O)O)NC(=O)[C@H](CC(C)C)NC(=O)[C@](C)(Cc1ccccc1)NC(=O)[C@H](CO)NC(=O)[C@](C)(CO)NC(=O)[C@@H](NC(=O)[C@H](CC(=O)O)NC(=O)[C@H](CO)NC(=O)[C@@H](NC(=O)[C@](C)(Cc1ccccc1)NC(=O)[C@H](CO)NC(=O)CNC(=O)[C@H](CCC(=O)O)NC(=O)C(C)(C)NC(=O)[C@@H](N)Cc1c[nH]cn1)[C@@H](C)O)C(C)C)C(=O)N[C@H](C(=O)N[C@@H](C)C(=O)N[C@@](C)(Cc1ccccc1)C(=O)N[C@H](C(=O)N[C@H](C(=O)N[C@@](C)(CCCCN)C(=O)NCC(=O)NCC(N)=O)C(C)C)C(C)C)[C@@H](C)CC)C(=O)O [compound 78] |
| 390 pM | 320 pM | 351 pM | ≥ 26000 pM | ≥ 26000 pM | ≥ 26000 pM | ≥ 26000 pM | – | – | – | – | – | CC[C@H](C)[C@H](NC(=O)[C@](C)(Cc1ccccc1)NC(=O)[C@H](CCC(=O)O)NC(=O)[C@H](CCCCNC(=O)CCCCCNC(=O)CCCCCNC(=O)CCCCCNC(=O)CCCCCCCCCCCCCCCCC(=O)O)NC(=O)[C@H](C)NC(=O)[C@H](C)NC(=O)[C@H](CCC(=O)O)NC(=O)CNC(=O)[C@H](CCC(=O)O)NC(=O)[C@H](CC(C)C)NC(=O)[C@](C)(Cc1ccccc1)NC(=O)[C@H](CO)NC(=O)[C@](C)(CO)NC(=O)[C@@H](NC(=O)[C@H](CC(=O)O)NC(=O)[C@H](CO)NC(=O)[C@@H](NC(=O)[C@](C)(Cc1ccccc1)NC(=O)[C@H](CO)NC(=O)CNC(=O)[C@H](CCC(=O)O)NC(=O)C(C)(C)NC(=O)[C@@H](N)Cc1c[nH]cn1)[C@@H](C)O)C(C)C)C(=O)N[C@@H](C)C(=O)N[C@@](C)(Cc1ccccc1)C(=O)N[C@H](C(=O)N[C@H](C(=O)N[C@@](C)(CCCCN)C(=O)NCC(=O)NCC(N)=O)C(C)C)C(C)C [compound 160] |
